One block for each molecule: values may come before it.
Key:
[1] = target: T1, A3+B3 (heteromeric CNGA3 + CNGB3) channels (Homo sapiens, UniProt Q16281+Q9NQW8); assay: inside-out patch clamp, macroscopic current dose-response, Hill fit; format: cell-based
T1 sequence (Q16281 1-694): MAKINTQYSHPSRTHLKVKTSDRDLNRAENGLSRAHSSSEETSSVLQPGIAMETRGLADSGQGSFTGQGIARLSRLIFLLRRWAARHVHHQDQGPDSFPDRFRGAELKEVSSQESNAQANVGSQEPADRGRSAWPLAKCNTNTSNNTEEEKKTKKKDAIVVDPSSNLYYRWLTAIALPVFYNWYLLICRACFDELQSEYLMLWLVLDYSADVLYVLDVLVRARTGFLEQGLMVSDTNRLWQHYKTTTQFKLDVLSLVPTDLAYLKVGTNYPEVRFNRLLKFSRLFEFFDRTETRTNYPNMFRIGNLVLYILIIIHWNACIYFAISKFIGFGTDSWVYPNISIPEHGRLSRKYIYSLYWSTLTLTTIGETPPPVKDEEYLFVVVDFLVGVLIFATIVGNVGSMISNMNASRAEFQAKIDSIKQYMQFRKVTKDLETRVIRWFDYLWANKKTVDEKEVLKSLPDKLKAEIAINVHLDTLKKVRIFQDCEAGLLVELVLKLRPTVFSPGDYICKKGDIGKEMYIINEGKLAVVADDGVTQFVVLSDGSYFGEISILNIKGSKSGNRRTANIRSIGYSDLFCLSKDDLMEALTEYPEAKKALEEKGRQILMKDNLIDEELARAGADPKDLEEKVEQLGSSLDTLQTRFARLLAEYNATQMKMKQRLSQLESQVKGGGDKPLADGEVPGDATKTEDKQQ
T1 sequence (Q9NQW8 1-809): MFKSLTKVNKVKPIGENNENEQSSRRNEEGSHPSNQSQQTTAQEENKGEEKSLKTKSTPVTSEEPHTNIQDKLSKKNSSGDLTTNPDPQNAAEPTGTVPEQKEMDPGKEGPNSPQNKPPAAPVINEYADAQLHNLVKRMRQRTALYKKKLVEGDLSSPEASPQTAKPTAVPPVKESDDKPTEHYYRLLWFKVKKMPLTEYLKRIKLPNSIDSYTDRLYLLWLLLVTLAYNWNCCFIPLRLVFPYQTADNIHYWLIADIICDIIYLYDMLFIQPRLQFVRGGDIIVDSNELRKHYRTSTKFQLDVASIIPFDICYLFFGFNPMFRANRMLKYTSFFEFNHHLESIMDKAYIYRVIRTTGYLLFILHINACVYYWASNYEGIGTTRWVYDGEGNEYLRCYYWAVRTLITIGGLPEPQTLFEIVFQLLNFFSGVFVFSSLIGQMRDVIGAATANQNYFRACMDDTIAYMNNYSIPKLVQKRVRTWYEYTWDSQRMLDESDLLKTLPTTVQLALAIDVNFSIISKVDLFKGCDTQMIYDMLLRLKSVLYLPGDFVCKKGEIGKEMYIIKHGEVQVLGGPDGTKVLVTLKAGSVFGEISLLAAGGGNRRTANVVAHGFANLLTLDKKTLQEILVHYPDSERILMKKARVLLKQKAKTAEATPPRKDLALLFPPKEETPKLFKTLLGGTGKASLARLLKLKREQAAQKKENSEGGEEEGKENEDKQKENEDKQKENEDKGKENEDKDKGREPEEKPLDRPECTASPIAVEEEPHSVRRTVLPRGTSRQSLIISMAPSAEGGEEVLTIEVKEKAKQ

[2] = target: T2, A3 (homomeric CNGA3) channels (Homo sapiens, UniProt Q16281); assay: as above; format: cell-based
T2 sequence (Q16281 1-694): T1 sequence (Q16281 1-694)

[3] = anti-FLAG immunoblot, intact oocytes exposed to MMPs 1 h; conditions: glycan lost; control: glycosylated form of A3wt subunits

- EC50 [1]: 15.2 ± 1.1 µM
- EC50 [2]: 5.6 ± 1 µM
Molecule: Nc1nc2c(ncn2[C@@H]2O[C@@H]3COP(=O)(O)O[C@H]3[C@H]2O)c(=O)[nH]1 [cGMP]

B1: CNGA3: A3N339Q (protein)
parent chain: T1 sequence (Q16281 1-694)
- other: proteolytic processing [3]: increases

Source: article PMC4657727 (Biochemistry, 2013)
